The text below walks through data of patent US5441941A, “1,2-dihydroellipticines with activity against CNS specific cancer” (The United States of America as represented by the …, priority 1993, dated 1995).

One series deals with DMS 273. Briefly: NCI in vitro screen, SRB percent growth, Small Cell Lung Cancer.
The next series has as its system DMS 114. The experiment in a line: cells. To be noted: Homo sapiens; for CC50: DMS-114, read-out: LC-50.
Setting [1] is: DMS-114, read-out: Percent Growth.

SMILES strings stand for the structures. Bounds are passed on as bounds.

In the case of `COc1ccc2[nH]c3c(C)c4c(c(C)c3c2c1)CN(C)C=C4` [Formula VII], the “Percent Growth” value in the series on DMS 273 (Log10 Concentration -4.0, 100 µM) is listed as -72%; in the series on DMS 273 (Log10 Concentration -5.0) it was 10%; with DMS 273 (Log10 Concentration -6.0, 1 µM), 48%; with DMS 273 (Log10 Concentration -7.0, 0.1 µM), 77%; in the series with DMS 273 (Log10 Concentration -8.0), 98%. The CC50 with DMS 273 (read-out: LC-50, PG=-50) was 54.3 µM; in the series with DMS 114 it was greater than 100 µM. Also, the activity at 0.1 µM in the series on DMS 114 (setting [1]) amounted to 64%. Moreover, the activity at 1 µM in the series on DMS 114 (setting [1]) came out at 11%. Moreover, the activity at 10 µM in the series with DMS 114 (setting [1]) is -37%. Further, the activity at 100 µM in the series on DMS 114 (setting [1]) is -46%.

Take `Cc1ccc2[nH]c3c(C)c4c(c(C)c3c2c1)CN(C)C=C4` [Formula XI]: the CC50 with DMS 114 is 6.03 µM. Further, in the series on DMS 114 (setting [1]), the activity at 0.01 µM was determined as 80%, the activity at 0.1 µM was determined as 73%, the activity at 10 µM was -74% and the activity at 100 µM was -68%.
